Experimental data published in patent US9744186B2 (priority 2012, dated 2017).

What was measured:
[1] = TC50 MTS assay with human cancer cell lines: BxPC3; type: cell-based; conditions: BxPC3 cells, 96 h drug treatment
Experimental: (§1) Plating Cells: The Huh7, HEPG2, HEK293, MCF-7, PK9, RPK9, or BxPC3 cells were passaged when they were about 70% confluent. The cells were counted using a hemocytometer, and then diluted cells to 0.5×10^5 cells per mL in DMEM+10% FBS. 100 µL of the cells (5,000 cells) were plated per well in a clear 96-well plate. The cells were allowed to attach for 24 hours at 37° C.
(§2) Treating the cells: Pre-warm the DMEM media without phenol red+2% FBS media to 37° C. […] This will bring the final DMSO concentration to 0.5%. Use these 0.5 mM dilutions to further serially the drugs in DMEM without phenol red+2% FBS+0.5% DMSO. This will keep the concentration of DMSO in each condition identical. Remove the 96-well plate from the 37° C. incubator. Replace the media on the plate with the dilutions of the drugs. Stagger these treatments by 1 h and write the treatment time on each set of plates. Return to 37° C. for 48 h or 96 h as indicated.
(§3) MTS Assay: The reagents from CellTiter 96 kit (Promega Corporation, Madison, Wis.) were thawed at room temperature in the dark for 1 h. The 96-well plate was removed from the 37° C. incubator at 48 h after drug treatment. […] The absorbance of each well at 490 nm and 650 nm was determined using the Flexstation 3 microplate reader in endpoint mode every hour for 3 h. The solutions in the wells were mixed prior to each reading. […]

HCV luciferase replicon [2] = assay: Reversal of anti-HCV activity by exogenous nucleosides; type: cell-based, hepatitis C virus (HCV); conditions: drug 1000, 100 or 25 nM; 50 μM cytidine or 2′-deoxycitidine; 48 h
Experimental: After 48 hours, the cells were lysed, and the total luciferase activity was determined. […] Where indicated, either 50 μM cytidine (C) or 50 μM 2′-deoxycitidine (dC) was also included.
The cells were plated, incubated with drug, and luciferase activity assayed essentially as described herein above. The incubation with drug was for 48 h.

HCV luciferase replicon [3] = assay: HCV luciferase replicon IC50 assay in Huh7 cells; conditions: Hepatitis C virus
Experimental: Plating Cells: The Luciferase replicon cell line was passaged when it was at about 70% confluency. The cells were counted by using a hemocytometer and diluted to 1×10^5 cells per mL in DMEM+10% FBS+[…] G415. The cells were plated as follows: 100 μL of the cells (10,000 cells) per well in a white-walled 96-well plate. The cells were allowed to attach for 24 hours at 37° C.
(§4) Treating the cells: Media (DMEM+2% FBS) was pre-warmed to 37° C. […] The 96-well plate was removed from the 37° C. incubator, and the media replaced on the plate with the serial dilutions of the test drug. The plate was then returned to 37° C. for 48 h.
Luciferase Assay: The Bright-Glo reagent (Promega Corporation, Madison, Wis.) was removed from the −80° C. freezer and allowed to thaw it at 4° C. in the dark. The amount of reagent necessary for the experiment (3.65 mL) was removed, and the remaining reagent was returned to −80° C. The Glo Lysis Buffer and the Bright Glow reagent were allowed to warm to room temperature for 30 min in the dark. The 96 well plate was removed from the incubator and the cells to allowed cool to room temperature for 30 min. The media was removed from the cells, and each well was gently washed in 100 μL of phosphate buffered saline (PBS). The PBS was removed and then 50 μL of the Glo Lysis Buffer was added to each well, followed by gently rocking the plate for 15 min at room temperature in the dark to ensure complete cell lysis. To each well of the 96-well plate was added 50 μL of the Bright Glo reagent and it was mixed well with the lysate. The plate was inserted into a GloMax 96 plate reader and allowed to sit for 5 min in the dark for the luciferase reaction to reach a steady state. The luminescence on the plate was read by using the pre-installed “Bright Glo” Promega program (Synergy Software) and the data were collected and saved. The data were fit to a 4 parameter logistic curve using Kaleidagraph using the following equation: 100/(1+(x/m3)^m4).
The data in Table 1 were determined for cells exposed to drug for 48 h. The IC50 is the concentration of each compound necessary to inhibit the replication of the HCV luciferase replicon to 50%.
That is, the cells were exposed to drug for 2 h at 37° C., followed by 46 h at 37° C. or incubated in the presence of drug for 48 h at 37° C.

[4] = TC50 MTS assay: RPK9 cells (deficient in deoxycytidine kinase); type: cell-based; conditions: human, 48 h drug treatment, dCK-deficient cells
Experimental: as §1, §2, §3

[5] = Compound solubility in media; type: physicochemical; conditions: DMEM+2% FBS cell culture media, 37 °C, plasma or biological fluid, kinetic from dmso stock; DMEM+2% FBS media
Experimental: as §4

[6] = TC50 MTS assay with human cancer cell lines: Huh7; type: cell-based; conditions: human, Huh7 cells; 96 h drug treatment
Experimental: as §1, §2
(§5) MTS Assay: The reagents from CellTiter 96 kit (Promega Corporation, Madison, Wis.) were thawed at room temperature in the dark for 1 h. The 96-well plate was removed from the 37° C. incubator at 48 h after drug treatment. 20 μL of the combined MTS/PMS reagent to each well of the plate, mixed, and the plate returned to 37° C. The absorbance of each well at 490 nm and 650 nm was determined using the Flexstation 3 microplate reader in endpoint mode every hour for 3 h. The solutions in the wells were mixed prior to each reading. Fit Data to the Emax model: y=(Emax*x)/(TC50+x), where Emax is the maximum inhibition and TC50 is the inhibitory dose 50%. Alternatively, fit the data to the Emax sigmoidal model: y=(Emax*x^slope)/(TC50^slope+x^slope), where slope is the Hill Slope.
(§6) Each TC50 was the average value of three measurements as described herein. […] The RPK9 cells are deficient in deoxycytidine kinase (“dCK”) activity, an enzyme required for the initial phosphorylation of dFdC to dFdCMP (see FIG. 2).

hENT1 = assay: TC50 MTS assay with human cancer cell lines: Huh7; type: cell-based; conditions: human, Huh7 cells; 48 h drug treatment; 10 μM S-(4-nitrobenzyl)-6-thioinosine (hENT1 inhibitor) added; read-out: TC50 (μM) in Huh7 cells NBTI
Experimental: as §1, §2, §5, §6

[7] = TC50 MTS assay: PK9 cells; type: cell-based; conditions: human, 48 h drug treatment
Experimental: as §1, §2, §3

[8] = TC50 MTS assay with human cancer cell lines: HEPG2; type: cell-based; conditions: HEPG2 cells, 96 h drug treatment
Experimental: as §1, §2, §5, §6

[9] = TC50 MTS assay with human cancer cell lines: HEK293; type: cell-based; conditions: HEK293 cells, 96 h drug treatment
Experimental: as §1, §2, §5, §6

[10] = TC50 MTS assay with human cancer cell lines: MCF-7; type: cell-based; conditions: MCF-7 cells, 96 h drug treatment
Experimental: as §1, §2, §5, §6

HCV luciferase replicon [11] = assay: Isobologram analysis of synergism with other anti-viral compounds; type: cell-based, hepatitis C virus (HCV)
Experimental: Isobologram analysis was carried to assess the potential synergistic interaction of representative disclosed compounds with representative antiviral compounds. The isobolgram analysis was conducted as previously described by Chou and Talalay (see Chou T. C. and Talalay P. “Analysis of combined drug effects: a new look at a very old problem.” Trends Pharmacol Sci 1983; 4:450-4; and Chou T. C. and Talalay P. “Quantitative analysis of dose-effect relationships: the combined effects of multiple drugs or enzyme inhibitors.” Adv Enzyme Regul 1984; 22:27-55). The definitions of synergism are those described by Chou (see Chou, T. C. (2006) Theoretical basis, experimental design, and computerized simulation of synergism and antagonism in drug combination studies. Pharmacol Rev. 58(3):621-81).
Data for the isobologram analysis are shown in FIGS. 12-15, and shown in each figure are the test compound concentrations and corresponding combination index.

For Nc1ccn([C@@H]2O[C@H](CO)[C@@H](O)C2(F)F)c(=O)n1 [gemcitabine, 4-amino-1-((2R,4R,5R)-3,3-difluoro-4-hydroxy-5-(hydroxymethyl)tetrahydrofuran-2-yl)pyrimidin-2(1H)-one, reference compound], which CC50 at 96 h [1] is on record?
The CC50 at 96 h was 2.9 ± 0.3 nM.

And the “reversal of the inhibition of the HCV luciferase replicon by deoxycytidine and cytidine” value (HCV luciferase replicon [2])?
The value was “reversal”.

What about the IC50 (HCV luciferase replicon [3]; Huh-7, 48 h, cells incubated with drug continuously for 48 h (Table 5)) of the same compound?
The IC50 was 58.4 ± 6.1 nM.

And the IC50 (HCV luciferase replicon [3]; Huh-7, cells incubated with drug for 2 h, followed by 46 h without drug)?
The IC50 was 170 ± 33 nM.

What about the CC50 at 48 h [4] of the same compound?
The CC50 at 48 h was greater than 500 µM.

And the solubility [5]?
Its solubility is greater than 500 µM.

What about the CC50 at 96 h [6] of the same compound?
The CC50 at 96 h was 3410 ± 1360 nM.

And the CC50 at 48 h (hENT1)?
Its CC50 at 48 h is greater than 500 µM.

And the CC50 at 48 h [7]?
Its CC50 at 48 h is 0.095 ± 0.035 µM.

What about the CC50 at 96 h [8] of the same compound?
The CC50 at 96 h was 311 ± 55 nM.

And the CC50 at 96 h [9]?
The CC50 at 96 h was 560 ± 130 nM.

What about the CC50 at 96 h [10] of the same compound?
Its CC50 at 96 h is 67 ± 14 nM.

And the “Interaction Type with PSI-6130” value (HCV luciferase replicon [11]; Compound 2 = PSI-6130)?
The value was “synergism”.

And the “Interaction Type with PSI-7977” value (HCV luciferase replicon [11]; Compound 2 = PSI-7977)?
The value was “slight synergism”.
